# Patent US11230541B2, “Heterocyclic compound” (Takeda Pharmaceutical Company Limited, priority 2017, dated 2022)
# Target: T1, NMDA receptor composed of four subunits including 2 sets of heterodimers of NR1 and NR2B (Homo sapiens, UniProt Q13224)
# T1 construct: host or cells: HEK293 (tetracycline-induced expression)
# Experiment: NR2B Ca2+ influx assay (FLIPR, Fluo-4) in HEK293 cells expressing human GRIN1 and GRIN2B
# Format: cell-based
# Details: HEK293, 10 μM final compound concentration, glutamic acid/glycine-induced Ca2+ influx, read-out: inhibitory rate (10 μM compound concentration)
# In short: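 Inhibition rate was calculated from 5-min cumulative Fluo-4 signal (FLIPR, 3-s reads), using agonist-free buffer wells as 100% inhibition. Compound, 10 μM final, was applied 15 min before adding buffer with 30 μM glutamic acid and glycine to HEK293 cells with tetracycline-induced human NR1/NR2B, in HEPES pH 7.2 with 1.8 mM CaCl2.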
# T1 sequence (Q13224 27-1484, other chains not shown): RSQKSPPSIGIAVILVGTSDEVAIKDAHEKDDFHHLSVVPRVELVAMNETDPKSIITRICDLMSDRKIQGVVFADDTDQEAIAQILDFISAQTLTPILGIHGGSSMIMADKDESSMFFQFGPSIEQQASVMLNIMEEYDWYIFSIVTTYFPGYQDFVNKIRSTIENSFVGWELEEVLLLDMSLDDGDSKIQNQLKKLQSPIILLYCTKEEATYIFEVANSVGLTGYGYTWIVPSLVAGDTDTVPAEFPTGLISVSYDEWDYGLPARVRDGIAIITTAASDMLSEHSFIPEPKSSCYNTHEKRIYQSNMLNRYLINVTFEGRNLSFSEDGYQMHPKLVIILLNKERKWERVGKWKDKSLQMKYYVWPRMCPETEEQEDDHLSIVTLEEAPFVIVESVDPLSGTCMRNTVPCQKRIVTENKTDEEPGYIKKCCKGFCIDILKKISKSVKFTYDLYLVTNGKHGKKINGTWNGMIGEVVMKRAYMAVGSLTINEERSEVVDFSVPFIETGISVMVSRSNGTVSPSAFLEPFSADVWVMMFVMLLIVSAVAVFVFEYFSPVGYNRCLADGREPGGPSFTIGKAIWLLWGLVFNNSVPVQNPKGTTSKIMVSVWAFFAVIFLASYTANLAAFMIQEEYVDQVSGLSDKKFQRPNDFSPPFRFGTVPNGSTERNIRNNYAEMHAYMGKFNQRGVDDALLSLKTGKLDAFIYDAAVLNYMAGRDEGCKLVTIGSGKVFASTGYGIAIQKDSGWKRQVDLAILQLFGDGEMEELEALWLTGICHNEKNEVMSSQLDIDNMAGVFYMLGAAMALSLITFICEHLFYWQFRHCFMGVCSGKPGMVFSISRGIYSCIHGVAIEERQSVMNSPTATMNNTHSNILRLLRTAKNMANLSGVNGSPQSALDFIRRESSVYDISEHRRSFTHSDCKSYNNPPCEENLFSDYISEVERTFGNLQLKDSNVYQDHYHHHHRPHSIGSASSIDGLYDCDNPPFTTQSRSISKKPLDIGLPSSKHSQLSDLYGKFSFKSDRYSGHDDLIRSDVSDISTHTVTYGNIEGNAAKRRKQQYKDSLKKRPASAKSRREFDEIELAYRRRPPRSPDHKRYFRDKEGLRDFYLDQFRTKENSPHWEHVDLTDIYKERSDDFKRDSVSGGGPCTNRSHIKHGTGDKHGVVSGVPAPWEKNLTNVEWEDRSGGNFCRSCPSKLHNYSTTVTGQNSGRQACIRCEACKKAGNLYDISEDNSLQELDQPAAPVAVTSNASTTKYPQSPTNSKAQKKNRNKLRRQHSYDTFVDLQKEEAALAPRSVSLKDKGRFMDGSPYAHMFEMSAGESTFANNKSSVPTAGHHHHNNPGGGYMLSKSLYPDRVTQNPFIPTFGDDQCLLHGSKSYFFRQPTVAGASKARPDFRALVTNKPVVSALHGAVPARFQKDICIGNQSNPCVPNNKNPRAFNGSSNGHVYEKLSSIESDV
row,SMILES,inhibition at 10 µM [%]
1,"CCc1ccc2[nH]nnc2c1CNC(=O)c1cc(F)c(C(F)(F)F)c(F)c1 [Example 205, N-((5-ethyl-1H-benzotriazol-4-yl)methyl)-3,5-difluoro-4-(trifluoromethyl)-benzamide]",87
2,"CCc1ccc2[nH]nnc2c1CNC(=O)c1cc(F)c(OC)c(F)c1 [Example 206, N-((5-ethyl-1H-benzotriazol-4-yl)methyl)-3,5-difluoro-4-methoxybenzamide]",95
3,"CCc1ccc2[nH]nnc2c1CNC(=O)c1cnc(OC)c(F)c1 [Example 208, N-((5-ethyl-1H-benzotriazol-4-yl)methyl)-5-fluoro-6-methoxynicotinamide]",85
4,"CCc1ccc2[nH]nnc2c1CNC(=O)c1ccc(OC(F)(F)F)cc1 [Example 209, N-((5-ethyl-1H-benzotriazol-4-yl)methyl)-4-(trifluoromethoxy)-benzamide]",94
5,"COc1c(F)cc(C(=O)NCc2cccc3[nH]nnc23)cc1F [Example 211, N-(1H-benzotriazol-4-ylmethyl)-3,5-difluoro-4-methoxybenzamide]",95
6,"O=C(NCc1c(C2CC2)ccc2[nH]nnc12)c1ccc(OC(F)F)c(F)c1 [Example 212, N-((5-cyclopropyl-1H-benzotriazol-4-yl)methyl)-4-(difluoromethoxy)-3-fluorobenzamide]",93
7,"COc1ccc2[nH]nnc2c1CNC(=O)c1ccc(OC(F)(F)F)cc1 [Example 213, N-((5-methoxy-1H-benzotriazol-4-yl)methyl)-4-(trifluoromethoxy)-benzamide]",98
8,"COc1ccc2ncn(C)c2c1CNC(=O)Nc1cccc(C)c1 [Example 215, 1-((6-methoxy-1-methyl-1H-benzimidazol-7-yl)methyl)-3-(3-methylphenyl)urea]",53
9,"COc1ccc2ncn(C)c2c1CNC(=O)Nc1cccc(F)c1 [Example 216, 1-(3-fluorophenyl)-3-((6-methoxy-l-methyl-1H-benzimidazol-7-yl)methyl)urea]",78
10,"COc1ccc2ncn(C)c2c1CNC(=O)Nc1ccc(F)c(C)c1 [Example 217, 1-(4-fluoro-3-methylphenyl)-3-((6-methoxy-1-methyl-1H-benzimidazol-7-yl)methyl)urea]",82
11,"COc1ccc2ncn(C)c2c1CNC(=O)Nc1ccc(C)c(F)c1 [Example 218, 1-(3-fluoro-4-methylphenyl)-3-((6-methoxy-1-methyl-1H-benzimidazol-7-yl)methyl)urea]",93
12,"COc1ccc2ncn(C)c2c1CNC(=O)Nc1cccc(Cl)c1 [Example 219, 1-(3-chlorophenyl)-3-((6-methoxy-1-methyl-1H-benzimidazol-7-yl)methyl)urea]",72
13,"COc1ccc2ncn(C)c2c1CNC(=O)Nc1cc(F)c(F)c(F)c1 [Example 220, 1-((6-methoxy-1-methyl-lH-benzimidazol-7-yl)methyl)-3-(3,4,5-trifluorophenyl)urea]",87
14,"COc1ccc2ncn(C)c2c1CNC(=O)Nc1ccc(OC(F)F)cc1 [Example 221, 1-(4-(difluoromethoxy)-phenyl)-3-((6-methoxy-1-methyl-lH-benzimidazol-7-yl)methyl)urea]",88
15,"COc1ccc2ncn(C)c2c1CNC(=O)Nc1cccc(C(F)(F)F)c1 [Example 222, 1-((6-methoxy-1-methyl-lH-benzimidazol-7-yl)methyl)-3-(3-(trifluoromethyl)-phenyl)urea]",55
16,"COc1ccc2ncn(C)c2c1CNC(=O)Nc1ccc(OC(F)(F)F)cc1 [Example 223, 1-((6-methoxy-1-methyl-1H-benzimidazol-7-yl)methyl)-3-(4-(trifluoromethoxy)-phenyl)urea]",83
17,"COc1ccc2ncn(C)c2c1CNC(=O)Nc1ccc(F)cc1 [Example 224, 1-(4-fluorophenyl)-3-((6-methoxy-1-methyl-1H-benzimidazol-7-yl)methyl)urea]",81
18,"COc1ccc(NC(=O)NCc2c(OC)ccc3ncn(C)c23)cc1F [Example 225, 1-(3-fluoro-4-methoxyphenyl)-3-((6-methoxy-1-methyl-1H-benzimidazol-7-yl)methyl)urea]",84
19,"O=C(NCc1c(C2CC2)ccc2[nH]nnc12)c1cnc(OC(F)F)c(F)c1 [Example 226, N-((5-cyclopropyl-1H-benzotriazol-4-yl)methyl)-6-(difluoromethoxy)-5-fluoronicotinamide]",94
20,"COc1ccc2[nH]nnc2c1CNC(=O)c1ccc(OC(F)(F)F)c(F)c1 [Example 227, 3-fluoro-N-((5-methoxy-1H-benzotriazol-4-yl)methyl)-4-(trifluoromethoxy)-benzamide]",97

# The next lines start with the values.
row,inhibition at 10 µM [%],SMILES
1,98,"COc1ccc2[nH]nnc2c1CNC(=O)c1cc(F)c(OC)c(F)c1 [Example 207, 3,5-difluoro-4-methoxy-N-((5-methoxy-1H-benzotriazol-4-yl)methyl)benzamide]"
2,90,"COc1c(F)cc(C(=O)NCc2c(F)ccc3ncn(C)c23)cc1F [Example 210, 3,5-difluoro-N-((6-fluoro-1-methyl-1H-benzimidazol-7-yl)methyl)-4-methoxybenzamide]"
3,86,"COc1ccc2nc(C)n(C)c2c1CNC(=O)c1cc(F)c(OC)c(F)c1 [Example 214, 3,5-difluoro-4-methoxy-N-((6-methoxy-1,2-dimethyl-lH-benzimidazol-7-yl)methyl)benzamide]"
4,70,"COc1ccc2nc(C)n(C)c2c1CNC(=O)c1csc(Cl)c1 [Example 228, 5-chloro-N-((6-methoxy-1,2-dimethyl-1H-benzimidazol-7-yl)methyl)thiophene-3-carboxamide]"
5,62,"COc1ccc2nc(C)n(C)c2c1CNC(=O)c1ccc(Cl)s1 [Example 229, 5-chloro-N-((6-methoxy-1,2-dimethyl-1H-benzimidazol-7-yl)methyl)thiophene-2-carboxamide]"
6,82,"COc1ccc2nc(C)n(C)c2c1CNC(=O)c1csc(C(F)(F)F)c1 [Example 230, N-((6-methoxy-1,2-dimethyl-1H-benzimidazol-7-yl)methyl)-5-(trifluoromethyl)-thiophene-3-carboxamide]"
7,73,"COc1ccc2nc(C)n(C)c2c1CNC(=O)c1ccc(C(F)(F)F)s1 [Example 231, N-((6-methoxy-1,2-dimethyl-lH-benzimidazol-7-yl)methyl)-5-(trifluoromethyl)-thiophene-2-carboxamide]"
8,64,"COc1ccc2nc(C)n(C)c2c1CNC(=O)c1csc(C(F)F)c1 [Example 232, 5-(difluoromethyl)-N-((6-methoxy-1,2-dimethyl-lH-benzimidazol-7-yl)methyl)thiophene-3-carboxamide]"
9,72,"COc1ccc2nc(C)n(C)c2c1CNC(=O)c1ccc(OC(F)(F)F)nc1 [Example 233, N-((6-methoxy-1,2-dimethyl-lH-benzimidazol-7-yl)methyl)-6-(trifluoromethoxy)-nicotinamide]"
10,73,"CCOc1ncc(C(=O)NCc2c(OC)ccc3nc(C)n(C)c23)cc1F [Example 234, 6-ethoxy-5-fluoro-N-((6-methoxy-1,2-dimethyl-lH-benzimidazol-7-yl)methyl)nicotinamide]"
11,57,"COc1ccc2nc(C)n(C)c2c1CNC(=O)c1cnc(OC)c(F)c1 [Example 235, 5-fluoro-6-methoxy-N-((6-methoxy-1,2-dimethyl-1H-benzimidazol-7-yl)methyl)nicotinamide]"
12,59,"COc1ccc2nc(C)n(C)c2c1CNC(=O)c1ccc(C(F)(F)F)c(F)c1 [Example 236, 3-fluoro-N-((6-methoxy-1,2-dimethyl-1H-benzimidazol-7-yl)methyl)-4-(trifluoromethyl)-benzamide]"
13,68,"COc1ccc2nc(C)n(C)c2c1CNC(=O)c1ccc(C(F)(F)F)cc1 [Example 237, N-((6-methoxy-1,2-dimethyl-1H-benzimidazol-7-yl)methyl)-4-(trifluoromethyl)-benzamide]"
14,61,"COc1ccc2nc(C)n(C)c2c1CNC(=O)c1ccc(C)c(F)c1 [Example 238, 3-fluoro-N-((6-methoxy-1,2-dimethyl-1H-benzimidazol-7-yl)methyl)-4-methylbenzamide]"
15,60,"COc1ccc2nc(C)n(C)c2c1CNC(=O)c1cc(F)c(C)c(F)c1 [Example 239, 3,5-difluoro-N-((6-methoxy-1,2-dimethyl-1H-benzimidazol-7-yl)methyl)-4-methylbenzamide]"
16,53,"COc1ccc2nc(C)n(C)c2c1CNC(=O)c1cc(F)c(C(F)F)c(F)c1 [Example 240, 4-(difluoromethyl)-3,5-difluoro-N-((6-methoxy-1,2-dimethyl-1H-benzimidazol-7-yl)methyl)benzamide]"
17,70,"COc1ccc2nc(C)n(C)c2c1CNC(=O)c1ccc(C(F)F)cc1 [Example 241, 4-(difluoromethyl)-N-((6-methoxy-1,2-dimethyl-lH-benzimidazol-7-yl)methyl)benzamide]"
18,69,"COc1ccc2nc(C)n(C)c2c1CNC(=O)c1ccc(C(F)F)c(F)c1 [Example 242, 4-(difluoromethyl)-3-fluoro-N-((6-methoxy-1,2-dimethyl-lH-benzimidazol-7-yl)methyl)benzamide]"
19,69,"COc1ccc(C(=O)NCc2c(OC)ccc3nc(C)n(C)c23)cc1F [Example 243, 3-fluoro-4-methoxy-N-((6-methoxy-1,2-dimethyl-lH-benzimidazol-7-yl)methyl)benzamide]"
20,87,"COc1ccc2nc(C)n(C)c2c1CNC(=O)c1ccc(OC(F)F)c(Cl)c1 [Example 244, 3-chloro-4-(difluoromethoxy)-N-((6-methoxy-1,2-dimethyl-lH-benzimidazol-7-yl)methyl)benzamide]"
